Measured values as given in PMC7062746, “X-ray Crystallography and Electron Paramagnetic Resonance Spectroscopy Reveal Active Site Rearrangement of Cold-Adapted Inorganic Pyrophosphatase” (Scientific Reports, 2020).

Target: T1, Sh-PPase (Mn-Sh-PPase; Mg-Sh-PPase) (Shewanella sp. AS-11, UniProt L8AXY8)
T1 construct: gene ppia; recombinant full-length (no tag stated), expressed in E. coli BL21 (DE3); ammonium sulphate fractionation, anion exchange, gel filtration; family II PPases are homodimers
T1 sequence (L8AXY8 2-308): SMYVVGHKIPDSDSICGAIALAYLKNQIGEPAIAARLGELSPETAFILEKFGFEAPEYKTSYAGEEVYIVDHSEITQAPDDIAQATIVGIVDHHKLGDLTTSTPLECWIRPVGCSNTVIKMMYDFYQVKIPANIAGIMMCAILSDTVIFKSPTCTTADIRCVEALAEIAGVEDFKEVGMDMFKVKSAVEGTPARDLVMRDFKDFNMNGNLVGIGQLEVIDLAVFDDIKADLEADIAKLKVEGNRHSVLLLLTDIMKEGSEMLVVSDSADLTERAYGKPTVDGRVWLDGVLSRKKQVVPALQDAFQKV
Assay: CW X-band EPR of the di-Mn centre
Type: binding
Conditions: Mn-activated enzyme, pH 7.5, frozen solution

Compound	CW X-band EPR of the di-Mn centre (substrate analogue, di-Mn centre signal lost on binding (inferred binding))	CW X-band EPR of the di-Mn centre (added as ammonium sulphate, substrate binding site)
O=P(O)(O)CP(=O)(O)O [PCP, methylendiphosphonic acid]	binding of PCP induced the decomposition of the di-Mn centre	
O=S(=O)(O)O [sulphate]		sulphate ion bound correctly to the substrate binding site
